According to patent publication US8071631B2, “Small molecule inhibitors of kynurenine-3-monooxygenase” (The J. David Gladstone Institutes, A Testamentary Trust …, priority 2006, dated 2011):

Tested on: kynurenine-3-monooxygenase (KMO)
Experiment: KMO inhibition, radiometric assay per Erickson et al. (release of 3H2O from L-[3,5-3H]-kynurenine)
Assay type: biochemical
Details: compound at 10 μM
Procedure: The KMO inhibiting activities of the compounds of the present invention were evaluated using standard methods. See Erickson et al., A Radiometric Assay for Kynurenine 3-Hydroxylase Based on the Release of ^3H2O During Hydroxylation of L-[3,5-^3H]-Kynurenine, Anal. Biochem. 1992, 205, 257-262, the disclosure of which is hereby incorporated by reference.
The IC50 value is the half maximal inhibitory concentration and represents the concentration of an inhibitor that is required for 50% inhibition of an enzyme activity and the percent inhibition measures the amount of enzyme activity inhibited at a given concentration of compound. If the administered compound is a prodrug then the prodrug may not inhibit KMO until it has metabolized appropriately.

| SMILES | % inhibition at 10 μM [%] |
| --- | --- |
| COc1ccc(S(=O)(=O)Nc2nnc(-c3ccccc3)s2)cc1OC [Compound A5, 3,4-dimethoxy-N-[5-(phenyl)-1,3,4-thiadiazol-2-yl]benzenesulfonamide] | 60.03 |
| COc1ccc(S(=O)(=O)[N-]c2cccc(-c3ccccc3)c2)cc1OC.[K+] [Compound A22, Potassium 3,4-dimethoxy-N-[biphenyl-3-yl]benzenesulfonamide] | 19.57 |
| COc1ccc(S(=O)(=O)Nc2cc(-c3ccccc3)no2)cc1OC [Compound A13, 3,4-dimethoxy-N-[3-(phenyl)-isoxazol-5-yl]benzenesulfonamide] | 17.82 |
| COc1ccc(S(=O)(=O)Nc2nsc(-c3ccc(Cl)cc3)n2)cc1OC [Compound A19, 3,4-dimethoxy-N-[5-(4-chlorophenyl)-1,2,4-thiadiazole-3-yl]benzenesulfonamide] | 68.6 |
| COc1ccc(S(=O)(=O)Nc2nc(-c3ccccc3)ns2)cc1OC [Compound A1, 3,4-dimethoxy-N-[3-(phenyl)-1,2,4-thiadiazol-5-yl]benzenesulfonamide] | 73.61 |
| Cc1ccc(S(=O)(=O)Nc2nc(-c3ccccc3)ns2)cc1 [Compound A2, 4-methyl-N-[3-(phenyl)-1,2,4-thiadiazol-5-yl]benzenesulfonamide] | 77.9 |
| COc1ccc(S(=O)(=O)Nc2ccc(-c3ccccc3)cn2)cc1OC [Compound A25, 3,4-dimethoxy-N-[5-(phenyl)-pyridine-2-yl]benzenesulfonamide] | 24.8 |
| COc1ccc(-c2cnc(NS(=O)(=O)c3ccc(OC)c(OC)c3)nc2)cc1 [Compound A23, 3,4-dimethoxy-N-[5-(4-methoxyphenyl)-pyrimidine-2-yl]benzenesulfonamide] | 17.5 |
| Cc1ccc(S(=O)(=O)Nc2nnc(-c3ccccc3)s2)cc1 [Compound A6, 4-methyl-N-[5-(phenyl)-1,3,4-thiadiazol-2-yl]benzenesulfonamide] | 71.59 |
| Cc1ccc(S(=O)(=O)Nc2cc(-c3ccccc3)no2)cc1 [Compound A14, 4-methyl-N-[3-(phenyl)-isoxazol-5-yl]benzenesulfonamide] | 30.74 |
